The text below walks through data of paper PMC10310857 (Nature Communications, 2023).

Assay [1] concerns GhRbohD. Also noted: species or system Gossypium hirsutum cv. Lvmian. Conditions: in vivo.
Assay [2] relates to GhMPK6. Also noted: species or system Gossypium hirsutum cv. Lvmian. Conditions: in vivo.

“And” between values parts separate entries of the source, which are not always exact repeats. Equal entries are not always repeated.

For the compound `O=C(NO)c1ccccc1` [Compound 1, benzohydroxamic acid], in assay [1], the “GhRbohD expression in cotton roots (Fig. 3f) Mean” value was 6.888 and 6.864 and 7.067 and 8.206. Besides, in assay [2], the “GhMPK6 expression in cotton roots (Fig. 3e) Mean” value is 2.326 and 2.211 and 2.747 and 2.402.
